The values below come from patent publication US8586125B2, “Thermal treatment of an implantable medical device” (Advanced Cardiovascular Systems, Inc., priority 1999, dated 2013).

Data set [1] in a line: Release Rate Profile Procedure (in vitro, HPLC). In kind it is physicochemical. To be noted: as demonstrated in Example 53. As to the method: This Example 41 is referred to as the “Release Rate Profile Procedure.” A drug-coated stent was placed on a stent holder of a Vankel Bio-Dis release rate tester (Vankel, Inc., Cary, N.C.). The stent was dipped into an artificial medium which stabilizes the 40-O-(2-hydroxy)ethyl-rapamycin in the testing solution, including a phosphate buffer saline solution (10 mM, pH 7.4) with 1% TRITON X-100 (Sigma Corporation), for a designated amount of time (e.g., 3 hours). Then the solution was analyzed for the amount of drug released from the stent coating using an HPLC process. The HPLC system consisted of a Waters 2690 system with an analytical pump, a column compartment (set at 40° C.), an auto-sampler, and a 996 PDA detector. The column was an YMC Pro C18 (150 mm×4.6 I.D., 3 μm particle size), maintained at a temperature of 40° C. The mobile phase consisted of 75% acetonitrile and 25% 20 mMolar ammonium acetate. […] After the drug solution was analyzed by HPLC the results were quantified by comparing the release rate results with a reference standard.
If the experimental protocol required that the stent coating be subjected to experimental conditions for an additional time, the stent was then dipped in a fresh medium solution for the necessary amount of time (e.g., another 3 hours) and the drug released in the solution was analyzed again according to the HPLC procedure described above. […]

Data set [2] can be described thus: Release rate from a standard polymeric coating. The conditions noted are these: in about 24 hours. Format: physicochemical. The source says:
Another potential shortcoming of the foregoing method of medicating stents is that the release rate of the active agent may be too high to provide an efficacious treatment. This shortcoming may be especially pronounced with certain active agents. […] Thus, there is a need for a coating that reduces the release rate of active agents in order to provide a more efficacious release rate profile.

Data set [3] has as its system coronary arteries. Put plainly: Cephalotaxin/EVOH coated stents implanted in porcine coronary arteries. To be noted: cephalotaxin coated vs uncoated and EVOH coated stents; estimated 33 μg cephalotaxin per stent. In kind it is in vivo, pigs. As to the method: Multi-Link™ stents were cleaned by placement in an ultrasonic bath of isopropyl alcohol solution for 10 minutes. The stents were dried and plasma cleaned in a plasma chamber. An EVOH solution was made with 1 gram of EVOH and 7 grams of DMSO, making an EVOH:DMSO ratio of 1:7. Cephalotaxin was added to the 1:7 EVOH:DMSO solution. Cephalotaxin constituted 5% by weight of the total weight of the solution. The solution was vortexed and placed in a tube. The cleaned Multi-Link™ stents were attached to mandrel wires and dipped into the solution. The coated stents were passed over a hot plate, for about 3-5 seconds, with a temperature setting of about 60° C. The coated stents were cured for 6 hours in an air box then placed in a vacuum oven at 60° C. for 24 hours. The above process was repeated twice, having a total of three layers. The average weight of the coating was 0.00013 gram, with an estimated cephalotaxin concentration of 33 μg. The stents were sterilized by electron beam radiation. […]

Consider `CO[C@H]1C[C@@H]2CC[C@@H](C)[C@@](O)(O2)C(=O)C(=O)N2CCCC[C@H]2C(=O)O[C@H]([C@H](C)C[C@@H]2CC[C@@H](OCCO)[C@H](OC)C2)CC(=O)[C@H](C)/C=C(\C)[C@@H](O)[C@@H](OC)C(=O)[C@H](C)C[C@H](C)/C=C/C=C/C=C/1C` [40-O-(2-hydroxy)ethyl-rapamycin], for which the “decrease of the release rate by thermal treatment as compared to a control group” value in data set [1] is given as “about 50%”. Besides, the “release rate from a standard polymeric coating” value in data set [2] is reported as “greater than 50%”.
Turning to `COC1=C[C@]23CCCN2CCc2cc4c(cc2[C@@H]3[C@@H]1O)OCO4` [cephalotaxin, Cephalotaxin], the “amount of neointimal proliferation resulting from arterial injury” value in data set [3] is given as “no significant difference”.
